“Also recorded” adds a separate entry of the source.
Key:
[1] = molecular target: T1, PPARα (Homo sapiens, UniProt Q07869); test: TR-FRET competitive binding assay PPARα; settings: up to 20 µM
T1 sequence (Q07869 200-468 limits assumed): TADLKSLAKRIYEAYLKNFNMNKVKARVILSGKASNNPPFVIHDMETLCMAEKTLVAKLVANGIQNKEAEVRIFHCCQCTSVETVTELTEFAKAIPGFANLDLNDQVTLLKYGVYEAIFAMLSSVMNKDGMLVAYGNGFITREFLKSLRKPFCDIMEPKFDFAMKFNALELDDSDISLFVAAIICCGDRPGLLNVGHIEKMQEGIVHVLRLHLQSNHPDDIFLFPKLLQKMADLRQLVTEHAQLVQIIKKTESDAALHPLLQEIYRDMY

[2] = molecular target: T2, PPARγ (Homo sapiens, UniProt P37231); test: TR-FRET competitive binding assay PPARγ; settings: concentration-response
T2 sequence (P37231 235-505 limits assumed): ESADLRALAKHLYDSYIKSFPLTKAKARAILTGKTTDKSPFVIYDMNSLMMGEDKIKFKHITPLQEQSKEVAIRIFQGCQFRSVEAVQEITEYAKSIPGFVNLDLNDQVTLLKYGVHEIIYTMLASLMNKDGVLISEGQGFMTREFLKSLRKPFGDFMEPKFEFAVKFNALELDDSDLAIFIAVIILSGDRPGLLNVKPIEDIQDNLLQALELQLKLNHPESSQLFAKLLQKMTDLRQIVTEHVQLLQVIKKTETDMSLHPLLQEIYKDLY

[3] = molecular target: T3, PPARδ (Homo sapiens, UniProt Q03181); test: TR-FRET competitive binding assay PPARδ; settings: concentration-response
T3 sequence (Q03181 1-441): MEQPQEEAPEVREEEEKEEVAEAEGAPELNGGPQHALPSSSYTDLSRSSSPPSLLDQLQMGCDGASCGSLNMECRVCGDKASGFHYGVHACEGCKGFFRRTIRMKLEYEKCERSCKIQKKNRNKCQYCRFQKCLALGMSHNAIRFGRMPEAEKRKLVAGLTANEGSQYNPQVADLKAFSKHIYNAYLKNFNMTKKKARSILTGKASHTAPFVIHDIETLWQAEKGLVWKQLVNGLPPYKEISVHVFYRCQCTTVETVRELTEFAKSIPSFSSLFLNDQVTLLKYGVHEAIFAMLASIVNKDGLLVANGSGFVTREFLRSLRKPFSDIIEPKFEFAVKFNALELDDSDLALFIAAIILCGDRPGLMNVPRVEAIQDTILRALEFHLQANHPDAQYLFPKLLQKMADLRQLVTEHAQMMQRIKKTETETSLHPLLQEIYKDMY

[4] = molecular target: T4, PPARγ (Homo sapiens, UniProt P37231); test: luciferase-reporter PPARγ transactivation assay in CV-1 cells; format: cell-based; settings: 30 µM
T4 sequence (P37231 1-505): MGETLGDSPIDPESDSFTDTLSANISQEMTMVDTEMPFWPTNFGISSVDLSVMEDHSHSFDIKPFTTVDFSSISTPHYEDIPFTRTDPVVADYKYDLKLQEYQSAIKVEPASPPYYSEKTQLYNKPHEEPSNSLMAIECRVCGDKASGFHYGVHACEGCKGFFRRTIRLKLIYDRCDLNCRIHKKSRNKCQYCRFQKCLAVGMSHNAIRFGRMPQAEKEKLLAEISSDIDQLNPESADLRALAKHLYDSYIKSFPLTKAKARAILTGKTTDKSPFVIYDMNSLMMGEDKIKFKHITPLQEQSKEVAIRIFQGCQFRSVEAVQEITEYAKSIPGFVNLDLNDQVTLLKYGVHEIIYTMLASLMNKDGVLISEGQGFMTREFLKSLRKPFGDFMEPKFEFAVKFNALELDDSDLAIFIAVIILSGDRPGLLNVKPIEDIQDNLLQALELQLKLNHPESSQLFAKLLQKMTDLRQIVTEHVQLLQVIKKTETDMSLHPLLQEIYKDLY

[5] = molecular target: T5, PPARδ (Homo sapiens, UniProt Q03181); test: TR-FRET PPARδ coactivator assay; format: biochemical; settings: compound alone
T5 sequence (Q03181 211-439 limits assumed): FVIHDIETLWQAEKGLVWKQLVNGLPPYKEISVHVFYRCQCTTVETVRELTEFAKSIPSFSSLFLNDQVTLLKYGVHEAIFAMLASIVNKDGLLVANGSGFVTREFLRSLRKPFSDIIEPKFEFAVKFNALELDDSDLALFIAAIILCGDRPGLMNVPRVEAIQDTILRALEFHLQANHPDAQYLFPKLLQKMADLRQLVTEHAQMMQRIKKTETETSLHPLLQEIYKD

[6] = molecular target: T5, PPARδ; test: TR-FRET PPARδ corepressor assay; format: biochemical; settings: SMRT-ID2 peptide
[7] = system: ANGPTL4 and PDK4 gene transcription; test: Q-RT-PCR of ANGPTL4 and PDK4 mRNA in hBM-MSCs; format: cell-based, human; settings: 3rd day after induction of adipogenesis
[8] = system: STZ-induced diabetic C57BL/6J mice; test: STZ-induced diabetes mouse model; format: in vivo; settings: oral 20 mg/kg for 5 days, male C57BL/6J
[9] = system: hBM-MSCs; test: adiponectin production during adipogenesis in hBM-MSCs; settings: 20 µM

replacement of labeled PPARα ligand binding [1]: ≤ 50% | PPARγ binding activity [2]: significant competitive binding activity | PPARδ binding activity [3]: maximal PPARδ binding activity
SMILES: O[C@@H]1[C@H](O)CS[C@H]1n1cnc2c(NCc3cccc(I)c3)nc(Cl)nc21 [Compound 3a, (2R,3R,4S)-2-(2-Chloro-6-((3-iodobenzyl)amino)-9H-purin-9-yl)tetrahydrothiophene-3,4-diol]
PPARγ transactivation compared to troglitazone [4]: did not achieve maximal PPARγ transactivation activity | recruitment of labeled coactivator peptide to PPARδ [5]: no effect on the recruitment of the labeled coactivator peptide | interaction between PPARδ and corepressor peptide [6]: promotion of the interaction between PPARδ and corepressor peptide | ANGPTL4 mRNA level [7]: did not affect ANGPTL4 and PDK4 mRNA levels | PDK4 mRNA level [7]: did not affect ANGPTL4 and PDK4 mRNA levels | serum lactate levels [8]: tended to decrease the serum lactate levels | serum triglyceride levels [8]: downregulated serum triglyceride levels | serum glucose levels ([8]; 20 mg/kg): significantly decreased serum glucose levels; also recorded: dose-dependent | rank as promoter of adipogenesis among tested A3 AR agonists and antagonists [9]: most potent promoter of adipogenesis

— article PMC5956890 (Journal of medicinal chemistry, 2017)
